Source: patent US20250099448A1, “HETEROCYCLIC COMPOUNDS” (Hoffmann-La Roche Inc., priority 2022, published 2025)

molecular target: T1, MAGL protein (Homo sapiens, UniProt Q99685); experiment: 2-AG assay: MAGL inhibitory activity by hydrolysis of 2-arachidonoylglycerol to arachidonic acid, followed by mass spectrometry; assay type: biochemical; details: 8 μM 2-arachidonoylglycerol, 15 min preincubation, 30 min reaction at RT, RapidFire MS readout
T1 sequence (Q99685 1-303): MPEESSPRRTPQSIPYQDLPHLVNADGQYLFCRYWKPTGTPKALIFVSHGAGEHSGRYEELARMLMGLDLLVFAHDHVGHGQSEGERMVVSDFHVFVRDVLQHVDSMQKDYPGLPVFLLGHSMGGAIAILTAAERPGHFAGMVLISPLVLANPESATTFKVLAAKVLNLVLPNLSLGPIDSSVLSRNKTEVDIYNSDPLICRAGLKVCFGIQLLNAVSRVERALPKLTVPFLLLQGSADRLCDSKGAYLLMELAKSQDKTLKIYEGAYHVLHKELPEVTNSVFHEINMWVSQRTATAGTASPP
Procedure, shortened: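 MAGL was preincubated 15 min at RT with compound (12.5 to […], 3-fold steps) in 50 mM TRIS, 1 mM EDTA, 0.01% Tween-20, 2.5% DMSO. The reaction ran 30 min at RT with 8 μM 2-AG. Arachidonic acid was quantified by RapidFire SPE-MS/MS against a d8-arachidonic acid internal standard.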

| Compound | IC50 |
| --- | --- |
| CS(=O)(=O)c1cc(C(F)(F)F)ccc1CC1CC2(C1)CN(C(=O)N1CC3(CC(c4nnc(C5CC5)[nH]4)C3)C1)C2 [compound 39] | 0.15 nM |
| CS(=O)(=O)c1cc(CC2CC3(C2)CN(C(=O)N2CC4(CC(c5nnc(C6CC6)[nH]5)C4)C2)C3)ccc1C(F)(F)F [compound 41] | 0.24 nM |
| O=C(N1CC2(CC(Cc3ccc(F)cn3)C2)C1)N1CC2(CC(c3nnc(C4CC4)[nH]3)C2)C1 [compound 43] | 0.58 nM |
| O=C(N1CC2(CC(Cc3cncc(F)c3)C2)C1)N1CC2(CC(c3nnc(C4CC4)[nH]3)C2)C1 [compound 45] | 2.37 nM |
| CS(=O)(=O)c1ccc(CC2CC3(C2)CN(C(=O)N2CC4(CC(c5nnc(C6CC6)[nH]5)C4)C2)C3)cc1C(F)(F)F [compound 46] | 0.9 nM |
| O=C(N1CC2(CCC(Cc3ccc(C(F)(F)F)cn3)CC2)C1)N1CC2(CC(c3nnc(C4CC4)[nH]3)C2)C1 [compound 48] | 0.13 nM |
| O=C(N1CC2(CCC(Cc3ccc(C(F)(F)F)cn3)C2)C1)N1CC2(CC(c3nnc(C4CC4)[nH]3)C2)C1 (stereo not drawn) [compound 50] | 0.19 nM |
| O=C(N1CC2(CCC(Oc3ccc(C(F)(F)F)nn3)CC2)C1)N1CC2(CC(c3nnc(C4CC4)[nH]3)C2)C1 [compound 51] | 1.77 nM |
| O=C(N1CC2(CCC(Oc3ccc(C(F)(F)F)nn3)CC2)C1)N1CC2(CC(c3nnc(C4CCC4)[nH]3)C2)C1 [compound 52] | 18.7 nM |
| CP1(=O)CCN(c2ccc(C3CN(C(=O)N4CC5(CC(c6nnc(C7CC7)[nH]6)C5)C4)C3)cn2)CC1 [compound 53] | 179 nM |
| O=C(N1CC2(CC(NS(=O)(=O)c3cccc(C(F)(F)F)c3)C2)C1)N1CC2(CC(c3nnc(C4CC4)[nH]3)C2)C1 [compound 56] | 0.74 nM |
| O=C(N1CC2(CC(Nc3ccc(C(F)(F)F)nn3)C2)C1)N1CC2(CC(c3nnc(C4CC4)[nH]3)C2)C1 [compound 57] | 25.7 nM |
| O=C(N1CC2(CCC(OCC3(C(F)(F)F)CC3)CC2)C1)N1CC2(CC(c3nnc(C4CC4)[nH]3)C2)C1 [compound 65] | 1.46 nM |
| O=C(N1CC2(CC(c3cnc(C(F)(F)F)cn3)C2)C1)N1CC2(CC(c3nnc(C4CC4)[nH]3)C2)C1 [compound 67] | 5.86 nM |
| O=C(N1CC2(CC(OCC3(C(F)(F)F)CC3)C2)C1)N1CC2(CC(c3nnc(C4CC4)[nH]3)C2)C1 [compound 68] | 5.36 nM |
| O=C(N1CC2(CCC(Oc3ccnc(C(F)(F)F)n3)CC2)C1)N1CC2(CC(c3nnc(C4CC4)[nH]3)C2)C1 [compound 73] | 3.24 nM |
| O=C(N1CC2(CCC(Oc3cnc(C(F)(F)F)cn3)CC2)C1)N1CC2(CC(c3nnc(C4CC4)[nH]3)C2)C1 [compound 74] | 0.77 nM |

| Compound | IC50 |
| --- | --- |
| O=C(N1CC2(CC(Oc3cnc(C(F)(F)F)cn3)C2)C1)N1CC2(CC(c3nnc(C4CC4)[nH]3)C2)C1 [compound 75] | 5.55 nM |
| CS(=O)(=O)c1ccc(CC2CCC3(C2)CN(C(=O)N2CC4(CC(c5nnc(C6CC6)[nH]5)C4)C2)C3)cc1 (stereo not drawn) [compound 77] | 0.69 nM |
| O=C(N1CC2(CC(Oc3ccc(C(F)(F)F)nn3)C2)C1)N1CC2(CC(c3nnc(C4CC4)[nH]3)C2)C1 [compound 78] | 3.92 nM |
| O=C(N1CC(c2ccc(N3CCS(=O)(=O)CC3)nc2)C1)N1CC2(CC(c3nnc(C4CC4)[nH]3)C2)C1 [compound 80] | 58.3 nM |
| O=C(N1CC(c2ccc(NC3CCS(=O)(=O)C3)nc2)C1)N1CC2(CC(c3nnc(C4CC4)[nH]3)C2)C1 (stereo not drawn) [compound 81] | 28.2 nM |
| CC1(O)CN(c2ccc(C3CN(C(=O)N4CC5(CC(c6nnc(C7CC7)[nH]6)C5)C4)C3)cn2)C1 [compound 82] | 20.5 nM |
| O=C(N1CC2(CC(c3nnc(C4CC4)[nH]3)C2)C1)N1CC2(CC(N3CC(C(F)(F)F)C3)C2)C1 [compound 83] | 25.7 nM |
| O=C(N1CC2(CC(c3nnc(C4CC4)[nH]3)C2)C1)N1CC2(CC(N3CC(CC(F)(F)F)C3)C2)C1 [compound 84] | 32.7 nM |
| O=C(N1CC2(CCN(Cc3ccc(S(=O)(=O)C(F)(F)F)cc3)CC2)C1)N1CC2(CC(c3nnc(C4CC4)[nH]3)C2)C1 [compound 85] | 1.02 nM |
| O=C(N1CC2(CC(c3nnc(C4CC4)[nH]3)C2)C1)N1CC2(CN(Cc3ccc(S(=O)(=O)C(F)(F)F)cc3)C2)C1 [compound 86] | 0.92 nM |
| O=C(N1CC2(CC(c3nnc(C4CC4)[nH]3)C2)C1)N1CC2(C1)CN(S(=O)(=O)c1cccc(OC(F)(F)F)c1)C2 [compound 87] | 8.21 nM |
| O=C(N1CC2(CC(c3nnc(C4CC4)[nH]3)C2)C1)N1CC2(CC[C@H](Oc3cnc(C(F)(F)F)cn3)C2)C1 [compound 90] | 7.88 nM |
| O=C(N1CC2(CC(c3nnc(C4CC4)[nH]3)C2)C1)N1CC2(C1)CN(S(=O)(=O)c1ccc(OC(F)(F)F)cc1)C2 [compound 91] | 4.05 nM |
| O=C(N1CC2(CC(c3nnc(C4CCC4)[nH]3)C2)C1)N1CC2(C1)CN(S(=O)(=O)c1ccc(OC(F)(F)F)cc1)C2 [compound 93] | 143 nM |
| O=C(N1CC2(CC(c3nnc(C4CC4)[nH]3)C2)C1)N1CC2(C1)CN(S(=O)(=O)c1ccccc1OC(F)(F)F)C2 [compound 94] | 3.88 nM |
| O=C(N1CC2(CC(c3nnc(C4CC4)[nH]3)C2)C1)N1CC2(C1)CN(S(=O)(=O)c1ccccc1C(F)(F)F)C2 [compound 96] | 2.94 nM |
| O=C(N1CC2(CC(c3nnc(C4CC4)[nH]3)C2)C1)N1CC2(C1)CN(S(=O)(=O)c1ccc(F)cc1C(F)(F)F)C2 [compound 98] | 1.92 nM |

The next lines start with the values.

| IC50 | Compound |
| --- | --- |
| 0.01 nM | O=C(N1CC2(CC(Cc3ccc(C(F)(F)F)cc3F)C2)C1)N1CC2(CC(c3nnc(C4CC4)[nH]3)C2)C1 [compound 37] |
| 0.01 nM | O=C(N1CC2(CC(Cc3ccc(C(F)(F)F)cc3F)C2)C1)N1CC2(CC(c3nnc(C4(O)CC4)[nH]3)C2)C1 [compound 38] |
| 0.4 nM | CS(=O)(=O)c1cc(C(F)(F)F)ccc1CC1CC2(C1)CN(C(=O)N1CC3(CC(c4nnc(C5(O)CC5)[nH]4)C3)C1)C2 [compound 40] |
| 0.88 nM | CS(=O)(=O)c1cc(CC2CC3(C2)CN(C(=O)N2CC4(CC(c5nnc(C6(O)CC6)[nH]5)C4)C2)C3)ccc1C(F)(F)F [compound 42] |
| 2.24 nM | O=C(N1CC2(CC(Cc3ccc(F)cn3)C2)C1)N1CC2(CC(c3nnc(C4(O)CC4)[nH]3)C2)C1 [compound 44] |
| 0.27 nM | CS(=O)(=O)c1ccc(CC2CC3(C2)CN(C(=O)N2CC4(CC(c5nnc(C6(O)CC6)[nH]5)C4)C2)C3)cc1C(F)(F)F [compound 47] |
| 0.81 nM | O=C(N1CC2(CCC(Cc3ccc(C(F)(F)F)cn3)CC2)C1)N1CC2(CC(c3nnc(C4(O)CC4)[nH]3)C2)C1 [compound 49] |
| 2.8 nM | O=C(N1CC2(CC(CNC3(C(F)(F)F)CC3)C2)C1)N1CC2(CC(c3nnc(C4CC4)[nH]3)C2)C1 [compound 54] |
| 22 nM | O=C(N1CC2(CC(CNC3(C(F)(F)F)CC3)C2)C1)N1CC2(CC(c3nnc(C4(O)CC4)[nH]3)C2)C1 [compound 55] |
| 0.53 nM | O=C(N1CC2(CC(Cc3nc(C(F)(F)F)ns3)C2)C1)N1CC2(CC(c3nnc(C4CC4)[nH]3)C2)C1 [compound 59] |
| 4.03 nM | O=C(N1CC2(CC(Cc3nc(C(F)(F)F)ns3)C2)C1)N1CC2(CC(c3nnc(C4(O)CC4)[nH]3)C2)C1 [compound 60] |
| 0.66 nM | O=C(N1CC2(CC(Cc3nc(C(F)(F)F)co3)C2)C1)N1CC2(CC(c3nnc(C4CC4)[nH]3)C2)C1 [compound 61] |
| 8.06 nM | O=C(N1CC2(CC(Cc3nc(C(F)(F)F)co3)C2)C1)N1CC2(CC(c3nnc(C4(O)CC4)[nH]3)C2)C1 [compound 62] |
| 3.59 nM | O=C(N1CC2(CC(Cn3cnc(C(F)(F)F)c3)C2)C1)N1CC2(CC(c3nnc(C4CC4)[nH]3)C2)C1 [compound 63] |
| 37.9 nM | O=C(N1CC2(CC(Cn3cnc(C(F)(F)F)c3)C2)C1)N1CC2(CC(c3nnc(C4(O)CC4)[nH]3)C2)C1 [compound 64] |
| 1.91 nM | O=C(N1CC2(CCC(OCC3(C(F)(F)F)CC3)CC2)C1)N1CC2(CC(c3nnc(C4(O)CC4)[nH]3)C2)C1 [compound 66] |
| 21.3 nM | O=C(N1CC2(CC(OCC3(C(F)(F)F)CC3)C2)C1)N1CC2(CC(c3nnc(C4(O)CC4)[nH]3)C2)C1 [compound 69] |
| 7.25 nM | O=C(N1CC2(CC(NC3(C(F)(F)F)CC3)C2)C1)N1CC2(CC(c3nnc(C4CC4)[nH]3)C2)C1 [compound 70] |
| 1.74 nM | O=C(N1CC2(CC(Cn3cnc(C(F)(F)F)n3)C2)C1)N1CC2(CC(c3nnc(C4CC4)[nH]3)C2)C1 [compound 71] |
| 157 nM | O=C(NC1(C(F)(F)F)CC1)C1CC2(C1)CN(C(=O)N1CC3(CC(c4nnc(C5CC5)[nH]4)C3)C1)C2 [compound 72] |
| 38 nM | O=C(N1CC2(CC(Oc3cnc(C(F)(F)F)cn3)C2)C1)N1CC2(CC(c3nnc(C4(O)CC4)[nH]3)C2)C1 [compound 76] |
| 43.4 nM | O=C(N1CC2(CC(Oc3ccc(C(F)(F)F)nn3)C2)C1)N1CC2(CC(c3nnc(C4(O)CC4)[nH]3)C2)C1 [compound 79] |
| 44 nM | O=C(N1CC2(CC(c3nnc(C4(O)CC4)[nH]3)C2)C1)N1CC2(C1)CN(S(=O)(=O)c1ccc(OC(F)(F)F)cc1)C2 [compound 92] |
| 47.5 nM | O=C(N1CC2(CC(c3nnc(C4(O)CC4)[nH]3)C2)C1)N1CC2(C1)CN(S(=O)(=O)c1ccccc1OC(F)(F)F)C2 [compound 95] |
| 27.9 nM | O=C(N1CC2(CC(c3nnc(C4(O)CC4)[nH]3)C2)C1)N1CC2(C1)CN(S(=O)(=O)c1ccccc1C(F)(F)F)C2 [compound 97] |
| 66.1 nM | O=C(N1CC2(CC(c3nnc(C4(O)CC4)[nH]3)C2)C1)N1CC2(C1)CN(S(=O)(=O)c1cccc(C(F)(F)F)c1)C2 [compound 100] |
